The numbers were not newly measured in patent US10674699B2, “Endophyte enhanced seedlings with increased pest tolerance” (priority 2006, dated 2020), which cites them from elsewhere.

The test system of series [1] is mosquito larvae (Aedes albopictus) cell line. The settings on record: Watts et al. 2003; cited from earlier work.
The next series relates to rats. As to conditions: in rats; Ueno et al. 1971; cited from earlier work.

Molecules are shown by their SMILES.

For the compound `Cc1cc(O)c2c(c1)C(=O)[C@]13C(=C2O)C(=O)[C@@H]2[C@H](O)[C@H]1[C@@H]1[C@@H](O)[C@H]3C(=O)C3=C(O)c4c(O)cc(C)cc4C(=O)[C@]312` [rugulosin], the “toxicity to cultured cells” value in series [1] was “toxic”. Moreover, the LD50 in the series on rats is 44 mg kg^−1 BW.
